# Assay results published in US10266497B2 (ABIDE THERAPEUTICS, INC., priority 2017, dated 2019).
# Where two headings read alike, the source gives them in different places.
# Columns and labels:
# FAAH [1] = molecular target: T1, FAAH (Mus musculus, UniProt O08914); experiment: In vitro competitive activity-based protein profiling, FAAH, mouse; conditions: read-out: FAAH % inh. 1 μM (mouse)
# T1 sequence (O08914 1-579): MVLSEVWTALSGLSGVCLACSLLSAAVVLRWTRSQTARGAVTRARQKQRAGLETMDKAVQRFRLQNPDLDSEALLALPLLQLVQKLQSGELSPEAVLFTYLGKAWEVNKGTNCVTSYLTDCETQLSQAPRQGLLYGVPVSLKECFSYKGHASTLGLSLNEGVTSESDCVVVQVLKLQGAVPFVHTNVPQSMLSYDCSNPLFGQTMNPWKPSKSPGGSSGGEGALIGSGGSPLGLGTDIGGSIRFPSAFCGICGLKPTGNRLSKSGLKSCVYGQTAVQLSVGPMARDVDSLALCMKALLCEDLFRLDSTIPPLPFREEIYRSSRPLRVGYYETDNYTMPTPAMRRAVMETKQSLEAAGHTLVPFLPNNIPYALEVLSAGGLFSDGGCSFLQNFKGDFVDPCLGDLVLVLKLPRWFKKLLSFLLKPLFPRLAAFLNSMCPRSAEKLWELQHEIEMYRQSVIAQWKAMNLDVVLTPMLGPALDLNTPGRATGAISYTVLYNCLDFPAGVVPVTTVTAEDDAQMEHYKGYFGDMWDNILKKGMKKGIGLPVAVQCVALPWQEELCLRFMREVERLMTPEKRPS
# MAGL [2] = molecular target: T2, MAGL (Mus musculus, UniProt O35678); experiment: Mouse brain proteomes from inhibitor treated mice (oral gavage, sacrificed 4 h after administration); assay type: in vivo; parameters: mouse brain membrane fraction for mouse assays; from tissue; host or cells: mouse brain (membrane fraction in vitro; brain proteomes of treated C57Bl/6J mice in vivo); conditions: 5 mg/kg oral gavage, brain proteome 4 h after administration, read-out: MAGL % inh. 5 mg/kg (mouse)
# T2 sequence (O35678 1-303): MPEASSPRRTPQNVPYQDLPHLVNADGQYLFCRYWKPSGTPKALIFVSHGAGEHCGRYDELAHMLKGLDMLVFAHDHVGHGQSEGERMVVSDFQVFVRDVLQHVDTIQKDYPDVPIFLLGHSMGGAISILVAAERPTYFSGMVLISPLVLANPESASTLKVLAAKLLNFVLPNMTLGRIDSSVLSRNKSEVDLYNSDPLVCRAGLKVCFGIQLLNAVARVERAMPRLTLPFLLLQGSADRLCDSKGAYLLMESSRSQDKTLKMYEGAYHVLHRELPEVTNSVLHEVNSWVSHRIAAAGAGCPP
# MAGL [3] = molecular target: T3, MAGL (Homo sapiens, UniProt Q99685); experiment: In vitro competitive activity-based protein profiling, MAGL, human; conditions: read-out: MAGL % inh. 1 μM (human)
# T3 sequence (Q99685 1-303): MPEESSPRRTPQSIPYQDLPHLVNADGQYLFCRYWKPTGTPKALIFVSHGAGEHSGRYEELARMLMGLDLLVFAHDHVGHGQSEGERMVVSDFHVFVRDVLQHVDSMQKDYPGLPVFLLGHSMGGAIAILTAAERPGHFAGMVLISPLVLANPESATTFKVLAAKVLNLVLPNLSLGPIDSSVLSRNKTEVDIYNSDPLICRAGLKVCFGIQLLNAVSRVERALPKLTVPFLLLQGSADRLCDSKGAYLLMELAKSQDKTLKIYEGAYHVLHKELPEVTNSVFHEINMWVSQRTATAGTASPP
# FAAH [4] = molecular target: T1, FAAH; experiment: Mouse brain proteomes from inhibitor treated mice (oral gavage, sacrificed 4 h after administration), FAAH; assay type: in vivo; parameters: mouse brain membrane fraction for mouse assays; from tissue; host or cells: mouse brain (membrane fraction in vitro; brain proteomes of treated C57Bl/6J mice in vivo); conditions: 5 mg/kg oral gavage, C57Bl/6J mice, brain proteome 4 h after administration, read-out: FAAH % inh. 5 mg/kg (mouse)
# MAGL [5] = molecular target: T2, MAGL; experiment: In vitro competitive activity-based protein profiling, MAGL, mouse; conditions: read-out: MAGL % inh. 1 μM (mouse)
# FAAH [6] = molecular target: T4, FAAH (Homo sapiens, UniProt O00519); experiment: In vitro competitive activity-based protein profiling, FAAH, human; conditions: for inhibition at 1 µM: read-out: FAAH % inh. 1 μM (human)
# T4 sequence (O00519 1-579): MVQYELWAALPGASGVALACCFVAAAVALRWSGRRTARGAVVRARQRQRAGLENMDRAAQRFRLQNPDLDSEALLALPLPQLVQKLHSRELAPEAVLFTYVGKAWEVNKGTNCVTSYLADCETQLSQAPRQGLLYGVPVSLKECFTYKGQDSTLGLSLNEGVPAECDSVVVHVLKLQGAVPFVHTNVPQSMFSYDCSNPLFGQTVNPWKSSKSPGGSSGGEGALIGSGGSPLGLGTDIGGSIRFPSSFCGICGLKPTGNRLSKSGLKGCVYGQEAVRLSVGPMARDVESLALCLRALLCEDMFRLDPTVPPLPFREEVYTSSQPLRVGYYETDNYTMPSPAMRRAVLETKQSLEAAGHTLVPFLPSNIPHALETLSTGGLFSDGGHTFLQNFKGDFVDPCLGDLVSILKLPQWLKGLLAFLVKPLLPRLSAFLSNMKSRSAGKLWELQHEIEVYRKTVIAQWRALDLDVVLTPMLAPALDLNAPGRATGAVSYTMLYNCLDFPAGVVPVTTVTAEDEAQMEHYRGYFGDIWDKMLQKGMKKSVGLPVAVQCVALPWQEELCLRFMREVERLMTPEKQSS
# FAAH [7] = molecular target: T1, FAAH; experiment: Mouse brain proteomes from inhibitor treated mice (oral gavage, sacrificed 4 h after administration), FAAH; assay type: in vivo; parameters: mouse brain membrane fraction for mouse assays; from tissue; host or cells: mouse brain (membrane fraction in vitro; brain proteomes of treated C57Bl/6J mice in vivo); conditions: 5 mg/kg oral gavage, brain proteome 4 h after administration, read-out: FAAH % inh. 5 mg/kg (mouse)
SMILES,inhibition at 1 µM (FAAH [1]) [%],inhibition at 5 mg/kg (MAGL [2]; C57Bl/6J mice) [%],inhibition at 1 µM (MAGL [3]) [%],inhibition at 5 mg/kg (FAAH [4]) [%],inhibition at 1 µM (MAGL [5]) [%],inhibition at 1 µM (FAAH [6]) [%],IC50 (FAAH [6]) [nM],inhibition at 5 mg/kg (MAGL [2]) [%],inhibition at 5 mg/kg (FAAH [7]) [%]
"CN(Cc1ccc(C(F)(F)F)cc1N1CCCC1)C1(C)CCN(C(=O)n2ccc(C(=O)O)n2)CC1 [Example 456, 1-(4-methyl-4-(methyl(2-(pyrrolidin-1-yl)-4-(trifluoromethyl)benzyl)amino)piper-idine-1-carbonyl)-1H-pyrazole-3-carboxylic acid]",0 to 25,0 to 25,> 75,0 to 25,> 75,0 to 25,,,
"O=C(O)c1ccn(C(=O)N2CCN(Cc3ccc(C(F)(F)F)c(N4CC5COCC5C4)c3)CC2)n1 (centres unmarked) [Example 454, 1-(4-(3-(tetrahydro-1H-furo[3,4-c]pyrrol-5(3H)-yl)-4-(trifluoromethyl)benzyl)piperazine-1-carbonyl)-1H-pyrazole-3-carboxylic acid]",0 to 25,0 to 25,> 75,0 to 25,> 75,0 to 25,,,
"O=C(O)c1ccn(C(=O)N2CCN(Cc3cccc(C(F)(F)F)c3N3CCOCC3)CC2)n1 [Example 453, 1-(4-(2-morpholino-3-(trifluoromethyl)benzyl)piperazine-1-carbonyl)-1H-pyrazole-3-carboxylic acid]",0 to 25,0 to 25,,0 to 25,> 75,,1000 to 10000,,
"O=C(O)c1ccn(C(=O)N2CCC3(CCCN3Cc3cc(N4CCCC4)cc(C(F)(F)F)c3)CC2)n1 [Example 88, 1-(1-(3-(pyrrolidin-1-yl)-5-(trifluoromethyl)benzyl)-1,8-diazaspiro[4.5]decane-8-carbonyl)-1 1H-pyrazole-3-carboxylic acid]",0 to 25,,> 75,,> 75,0 to 25,,0 to 25,0 to 25
"O=C(O)c1ccn(C(=O)N2CCC3(CCN(Cc4cc(Cl)ccc4C(F)(F)F)C3)CC2)n1 [Example 43, 1-(2-(5-chloro-2-(trifluoromethyl)benzyl)-2,8-diazaspiro[4.5]decane-8-carbonyl)-1H-pyrazole-3-carboxylic acid]",> 75,,> 75,,> 75,50 to 75,1000 to 10000,0 to 25,0 to 25
"CC1CCC(C)N1c1cc(C(F)(F)F)ccc1CN1CCN(C(=O)n2ccc(C(=O)O)n2)CC1 (centres unmarked) [Example 114, 1-(4-(2-(2,5-dimethylpyrrolidin-1-yl)-4-(trifluoromethyl)benzyl)piperazine-1-carbonyl)-1H-pyrazole-3-carboxylic acid]",0 to 25,,> 75,,> 75,0 to 25,,0 to 25,0 to 25
"O=C(O)c1nn(C(=O)N2CCC3(CCN(Cc4cc(Cl)ccc4C(F)(F)F)C3)CC2)cc1C(F)(F)F [Example 148, 1-(2-(5-chloro-2-(trifluoromethyl)benzyl)-2,8-diazaspiro[4.5]decane-8-carbonyl)-4-(trifluoromethyl)-1H-pyrazole-3-carboxylic acid]",> 75,,> 75,,> 75,> 75,100 to 1000,0 to 25,25 to 50
"O=C(O)c1ccn(C(=O)N2CCC3(CCCN3Cc3ccc(C(F)(F)F)cc3Cl)CC2)n1 [Example 76, 1-(1-(2-chloro-4-(trifluoromethyl)benzyl)-1,8-diazaspiro[4.5]decane-8-carbonyl)-1H-pyrazole-3-carboxylic acid]",0 to 25,,> 75,,> 75,0 to 25,,0 to 25,0 to 25
"O=C(O)c1ccn(C(=O)N2CCN(Cc3ccc(C(F)(F)F)cc3N3CCCCC3)CC2)n1 [Example 100, 1-(4-(2-(piperidin-1-yl)-4-(trifluoromethyl)benzyl)piperazine-1-carbonyl)-1H-pyrazole-3-carboxylic acid]",0 to 25,,> 75,,> 75,0 to 25,1000 to 10000,0 to 25,0 to 25
"C[C@@H]1CCCN1c1cc(C(F)(F)F)ccc1CN1CCN(C(=O)n2ccc(C(=O)O)n2)CC1 [Example 95, (R)-1-(4-(2-(2-methylpyrrolidin-1-yl)-4-(trifluoromethyl)benzyl)piperazine-1-carbonyl)-1H-pyrazole-3-carboxylic acid]",0 to 25,,> 75,,> 75,0 to 25,,0 to 25,0 to 25
"O=C(O)c1ccn(C(=O)N2C[C@H]3C[C@H](OCc4ccc(Oc5ccc(Cl)cc5)cc4)C[C@H]3C2)n1 [Example 55, 1-(trans-5-((4-(4-chlorophenoxy)benzyl)oxy)octa-hydrocyclopenta[c]pyrrole-2-carbonyl)-1H-pyrazole-3-carboxylic acid]",> 75,,> 75,,> 75,> 75,,0 to 25,0 to 25
